According to patent US20260132132A1, “3A,4,5,6-TETRAHYDRO-1 H-PYRAZOLO[3,4-C]PYRIDIN-7(7AH)-ONE DERIVATIVES AS FACTOR XIIA INHIBITORS” (KALVISTA PHARMACEUTICALS LIMITED, priority 2022, published 2026):

Legend:
Format in all cases: biochemical
[1] = target: T1, Human Factor XIIa (hFXIIa) (Homo sapiens, UniProt P00748); assay: Determination of Human Factor XIIa (hFXIIa) inhibition, fluorogenic substrate IC50 assay; conditions: fluorogenic substrate H-DPro-Phe-Arg-AFC at Km, 25° C., read-out: Human FXIIa IC50
T1 construct: purchased Enzyme Research Laboratories
T1 sequence (P00748 373-615 limits assumed): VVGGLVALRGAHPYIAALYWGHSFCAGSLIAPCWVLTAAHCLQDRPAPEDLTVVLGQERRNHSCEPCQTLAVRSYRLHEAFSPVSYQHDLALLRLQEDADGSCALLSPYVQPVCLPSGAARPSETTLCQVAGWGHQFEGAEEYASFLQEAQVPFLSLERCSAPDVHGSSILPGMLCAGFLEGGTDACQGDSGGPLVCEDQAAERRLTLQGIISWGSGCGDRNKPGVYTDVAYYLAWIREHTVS
T1 sequence (P00748 20-372 partner limits assumed): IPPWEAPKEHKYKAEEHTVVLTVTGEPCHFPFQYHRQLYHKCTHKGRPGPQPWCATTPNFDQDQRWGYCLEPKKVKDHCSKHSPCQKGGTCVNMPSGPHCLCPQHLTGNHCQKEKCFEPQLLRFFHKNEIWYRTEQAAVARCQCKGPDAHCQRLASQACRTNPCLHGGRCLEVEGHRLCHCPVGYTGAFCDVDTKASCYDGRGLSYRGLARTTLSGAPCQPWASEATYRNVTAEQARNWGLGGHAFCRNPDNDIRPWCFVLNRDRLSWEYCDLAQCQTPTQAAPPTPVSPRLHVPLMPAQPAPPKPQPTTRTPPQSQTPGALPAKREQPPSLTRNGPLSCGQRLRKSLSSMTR
Protocol: Determination of Human Factor XIIa (hFXIIa) inhibition
The Km for the cleavage of the substrate by hFXIIa was determined by standard transformation of the Michaelis-Menten equation, with subsequent inhibition assays performed at substrate Km concentration.

[2] = target: Thrombin (Homo sapiens, UniProt P00734); assay: Related protease inhibition: Thrombin, fluorogenic substrate; conditions: fluorogenic substrate at Km, 25° C., H1-H3 = % activity at 40 μM; for activity at 40 µM: read-out: IC50 (human thrombin) nM
Protocol: (§1) Human serine protease enzyme Plasma Kallikrein, KLK1, FXa, Plasmin, Thrombin and Trypsin were assayed for enzymatic activity using an appropriate fluorogenic substrate at Km concentration, FXIa at fixed substrate concentration of 100 μM and various concentrations of the test compound.

[3] = target: FXa (Homo sapiens, UniProt P00742); assay: Related protease inhibition: FXa, fluorogenic substrate; conditions: fluorogenic substrate at Km, 25° C., H1-H3 = % activity at 40 μM; for activity at 40 µM: read-out: IC50 (human FXa) nM
Protocol: as §1

Sequence of FXa (P00742 235-488 limits assumed): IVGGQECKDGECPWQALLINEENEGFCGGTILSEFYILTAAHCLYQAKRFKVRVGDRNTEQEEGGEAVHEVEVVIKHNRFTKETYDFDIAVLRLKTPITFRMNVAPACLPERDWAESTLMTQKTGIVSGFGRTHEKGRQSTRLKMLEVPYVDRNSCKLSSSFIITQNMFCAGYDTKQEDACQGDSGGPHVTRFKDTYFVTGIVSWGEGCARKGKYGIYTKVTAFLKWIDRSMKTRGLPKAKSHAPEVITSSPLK
Sequence of FXa (P00742 41-179 partner limits assumed): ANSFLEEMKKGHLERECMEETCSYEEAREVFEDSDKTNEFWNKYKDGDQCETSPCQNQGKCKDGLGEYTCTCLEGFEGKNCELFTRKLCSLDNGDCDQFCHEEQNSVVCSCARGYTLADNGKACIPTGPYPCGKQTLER

| SMILES | IC50 [1] | activity at 40 µM [2] | activity at 40 µM [3] | IC50 [2] | IC50 [3] |
| --- | --- | --- | --- | --- | --- |
| CN1CCc2ccc(N3CCc4c(C(=O)NCC5(O)CC5)nn(-c5cccc(Cl)c5)c4C3=O)cc2C1=O [Example 1421, 1-(3-chlorophenyl)-N-((1-hydroxycyclopropyl)methyl)-6-(2-methyl-1-oxo-1,2,3,4-tetrahydroisoquinolin-7-yl)-7-oxo-4,5,6,7-tetrahydro-1H-pyrazolo[3,4-c]pyridine-3-carboxamide] | 300 to 1000 nM | > 80% | > 80% |  |  |
| CCNC(=O)c1nn(-c2cccc(OC)n2)c2c1CCN(c1ccc3c(c1)C(=O)N(C)CC3)C2=O [Example 2037, N-ethyl-1-(6-methoxypyridin-2-yl)-6-(2-methyl-1-oxo-1,2,3,4-tetrahydroisoquinolin-7-yl)-7-oxo-4,5,6,7-tetrahydro-1H-pyrazolo[3,4-c]pyridine-3-carboxamide] | 10000 to 40000 nM | > 80% | > 80% |  |  |
| CCNC(=O)c1nn(-c2cccc(Cl)c2)c2c1CCN(c1cccc(N3CCN(C)C(=O)C3)c1)C2=O [Example 1432, 1-(3-chlorophenyl)-N-ethyl-6-(3-(4-methyl-3-oxopiperazin-1-yl)phenyl)-7-oxo-4,5,6,7-tetrahydro-1H-pyrazolo[3,4-c]pyridine-3-carboxamide] | 1000 to 3000 nM | < 20% | 20 to 80% |  |  |
| CN1CCc2ccc(N3CCc4c(C(=O)N[C@H](CO)C5CC5)nn(-c5cccc(Cl)c5)c4C3=O)cc2C1=O [Example 1406, (S)-1-(3-chlorophenyl)-N-(1-cyclopropyl-2-hydroxyethyl)-6-(2-methyl-1-oxo-1,2,3,4-tetrahydroisoquinolin-7-yl)-7-oxo-4,5,6,7-tetrahydro-1H-pyrazolo[3,4-c]pyridine-3-carboxamide] | 100 to 300 nM | 20 to 80% | > 80% |  |  |
| CCNC(=O)c1nn(-c2cccc(Cl)c2)c2c1CCN(c1cccc(N3CCN(C)CC3)c1)C2=O [Example 1423, 1-(3-Chlorophenyl)-N-ethyl-6-(3-(4-methylpiperazin-1-yl)phenyl)-7-oxo-4,5,6,7-tetrahydro-1H-pyrazolo[3,4-c]pyridine-3-carboxamide] | 1000 to 3000 nM | 20 to 80% | 20 to 80% |  |  |
| CCNC(=O)c1nn(-c2cccc(Cl)c2)c2c1CCN(c1ccc3c(c1)C(=O)N(C)C1CC3C1)C2=O [Example 1434, 1-(3-chlorophenyl)-N-ethyl-6-(2-methyl-1-oxo-2,3,4,5-tetrahydro-1H-3,5-methanobenzo[c]azepin-8-yl)-7-oxo-4,5,6,7-tetrahydro-1H-pyrazolo[3,4-c]pyridine-3-carboxamide] | 1000 to 3000 nM | 20 to 80% | 20 to 80% |  |  |
| CN1CCc2ccc(N3CCc4c(C(=O)NCC5CCOCC5)nn(-c5cccc(Cl)c5)c4C3=O)cc2C1 [Example 1027, 1-(3-chlorophenyl)-6-(2-methyl-1,2,3,4-tetrahydroisoquinolin-7-yl)-7-oxo-N-((tetrahydro-2H-pyran-4-yl)methyl)-4,5,6,7-tetrahydro-1H-pyrazolo[3,4-c]pyridine-3-carboxamide] | 300 to 1000 nM |  |  | > 100000 nM | 3000 to 10000 nM |
| CN1CCOc2ccc(N3CCc4c(C(=O)NCC5CC5)nn(-c5cccc(Cl)c5F)c4C3=O)cc2C1=O [Example 2046, 1-(3-chloro-2-fluorophenyl)-N-(cyclopropylmethyl)-6-(4-methyl-5-oxo-2,3,4,5-tetrahydrobenzo[f][1,4]oxazepin-7-yl)-7-oxo-4,5,6,7-tetrahydro-1H-pyrazolo[3,4-c]pyridine-3-carboxamide] | 10 to 100 nM | > 80% | > 80% |  |  |
| CCNC(=O)c1nn(-c2cccc(Cl)c2)c2c1CCN(c1cc3c(cc1F)OCCN(C)C3=O)C2=O [Example 1435, 1-(3-chlorophenyl)-N-ethyl-6-(8-fluoro-4-methyl-5-oxo-2,3,4,5-tetrahydrobenzo[f][1,4]oxazepin-7-yl)-7-oxo-4,5,6,7-tetrahydro-1H-pyrazolo[3,4-c]pyridine-3-carboxamide] | 100 to 300 nM | > 80% | > 80% |  |  |
| CCNC(=O)c1nn(-c2cc(C)cc(Cl)c2)c2c1CCN(c1ccc3c(c1)C(=O)N(C)CC3)C2=O [Example 2051, 1-(3-chloro-5-methylphenyl)-N-ethyl-6-(2-methyl-1-oxo-1,2,3,4-tetrahydroisoquinolin-7-yl)-7-oxo-4,5,6,7-tetrahydro-1H-pyrazolo[3,4-c]pyridine-3-carboxamide] | 300 to 1000 nM | > 80% | 20 to 80% |  |  |
| Cc1cc(CNC(=O)c2nn(-c3cccc(Cl)c3)c3c2CCN(c2ccc4c(c2)C(=O)N(CC(F)(F)F)CCO4)C3=O)n[nH]1 [Example 1378, 1-(3-chlorophenyl)-N-((5-methyl-1H-pyrazol-3-yl)methyl)-7-oxo-6-(5-oxo-4-(2,2,2-trifluoroethyl)-2,3,4,5-tetrahydrobenzo[f][1,4]oxazepin-7-yl)-4,5,6,7-tetrahydro-1H-pyrazolo[3,4-c]pyridine-3-carboxamide] | 10 to 100 nM |  |  | 10000 to 40000 nM | 10000 to 40000 nM |
| CN1CCc2ccc(N3CCc4c(C(=O)NC5COCC56CC6)nn(-c5cccc(Cl)c5)c4C3=O)cc2C1=O (stereo not drawn) [Example 1438, 1-(3-chlorophenyl)-6-(2-methyl-1-oxo-1,2,3,4-tetrahydroisoquinolin-7-yl)-7-oxo-N-(5-oxaspiro[2.4]heptan-7-yl)-4,5,6,7-tetrahydro-1H-pyrazolo[3,4-c]pyridine-3-carboxamide] | 100 to 300 nM | > 80% | > 80% |  |  |
| CN1CCc2ccc(N3CCc4c(C(=O)NCC(=O)O)nn(-c5cc(Cl)cc(CN)c5)c4C3=O)cc2C1=O [Example 2056, (1-(3-(aminomethyl)-5-chlorophenyl)-6-(2-methyl-1-oxo-1,2,3,4-tetrahydroisoquinolin-7-yl)-7-oxo-4,5,6,7-tetrahydro-1H-pyrazolo[3,4-c]pyridine-3-carbonyl)glycine] | 10 to 100 nM | > 80% | 20 to 80% |  |  |
| CCNC(=O)c1nn(-c2cccc(Cl)c2)c2c1CCN(c1cccc(N3C4CCC3CN(C)C4)c1)C2=O [Example 1436, 1-(3-chlorophenyl)-N-ethyl-6-(3-(3-methyl-3,8-diazabicyclo[3.2.1]octan-8-yl)phenyl)-7-oxo-4,5,6,7-tetrahydro-1H-pyrazolo[3,4-c]pyridine-3-carboxamide] | 3000 to 10000 nM | > 80% | > 80% |  |  |
| COCCNC(=O)c1nn(-c2cccc(Cl)c2)c2c1CCN(c1ccc3c(c1)C(=O)N(C)CC3)C2=O [Example 1410, 1-(3-chlorophenyl)-N-(2-methoxyethyl)-6-(2-methyl-1-oxo-1,2,3,4-tetrahydroisoquinolin-7-yl)-7-oxo-4,5,6,7-tetrahydro-1H-pyrazolo[3,4-c]pyridine-3-carboxamide] | 300 to 1000 nM | < 20% | 20 to 80% |  |  |
| Cc1ccc(CNC(=O)c2nn(-c3cccc(Cl)c3F)c3c2CCN(c2ccc4c(c2)C(=O)N(C)CC4)C3=O)cn1 [Example 2044, 1-(3-chloro-2-fluorophenyl)-6-(2-methyl-1-oxo-1,2,3,4-tetrahydroisoquinolin-7-yl)-N-((6-methylpyridin-3-yl)methyl)-7-oxo-4,5,6,7-tetrahydro-1H-pyrazolo[3,4-c]pyridine-3-carboxamide] | 10 to 100 nM | 20 to 80% | > 80% |  |  |
